EC50 data for 1 molecule are collected here from article PMC4703110 (Journal of chemical information and modeling, 2015).

The assay addresses human μ-opioid receptor (Homo sapiens, UniProt P35372). Format: cell-based. As to conditions: read-out: EC50, μM (PAM mode).

Structures are written as SMILES.

human μ-opioid receptor, sequence (P35372 whole entry): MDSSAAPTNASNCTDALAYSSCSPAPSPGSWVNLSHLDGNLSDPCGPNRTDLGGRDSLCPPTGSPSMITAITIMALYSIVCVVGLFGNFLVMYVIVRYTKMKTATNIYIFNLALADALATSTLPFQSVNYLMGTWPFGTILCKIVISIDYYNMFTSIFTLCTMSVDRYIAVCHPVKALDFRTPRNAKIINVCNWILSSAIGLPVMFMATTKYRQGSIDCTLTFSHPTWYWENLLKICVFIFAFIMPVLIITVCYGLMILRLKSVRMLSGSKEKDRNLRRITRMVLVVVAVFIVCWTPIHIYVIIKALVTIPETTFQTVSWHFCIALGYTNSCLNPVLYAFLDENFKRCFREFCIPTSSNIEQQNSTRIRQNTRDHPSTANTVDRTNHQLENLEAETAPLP

A word on the EC50: it is the midpoint of the concentration-response curve. Consider `COc1ccc(C2SCCN2S(=O)(=O)c2ccc(Cl)cc2)cc1Br` (stereo not shown) [BMS-986122], for which the EC50 is 16.2 µM.
